# Legend:
# Type in all cases: functional
# [1] = test system: Acinetobacter calcoaceticus; experiment: Tested in vitro for inhibitory activity against gram negative bacteria Acinetobacter calcoaceticus OSMPV 113 strain.
# [2] = test system: Enterobacter cloacae; experiment: Tested in vitro for inhibitory activity against gram negative bacteria Enterobacter cloacae OMNFI 174 strain.
# [3] = test system: Escherichia coli; experiment: Tested in vitro for inhibitory activity against gram negative bacteria Escherichia coli ATCC 8739 cell lines
# [4] = test system: Escherichia coli; experiment: Tested in vitro for inhibitory activity against gram negative bacteria Escherichia coli ISF 432 strain.
# [5] = test system: Shigella; experiment: Tested in vitro for inhibitory activity against gram negative bacteria Shigella enteritidis
# [6] = test system: Staphylococcus epidermidis; experiment: Tested in vitro for inhibitory activity against gram positive bacteria Staphylococcus epidermidis HCF berset C strain
# [7] = test system: Staphylococcus aureus; experiment: Tested in vitro for inhibitory activity against gram positive bacteria Staphylococcus aureus ATCC 6538 strain
# [8] = test system: Staphylococcus aureus; experiment: Tested in vitro for inhibitory activity against gram positive bacteria Staphylococcus aureus MPR 5 strain
# [9] = test system: Enterococcus faecalis; experiment: Tested in vitro for inhibitory activity against gram positive bacteria Streptococcus faecalis LEP Br strain
# [10] = test system: Staphylococcus epidermidis; experiment: Tested in vitro for inhibitory activity against gram positive bacteria Staphylococcus epidermidis CPHL A2 strain
# [11] = test system: Klebsiella pneumoniae; experiment: Tested in vitro for inhibitory activity against gram negative bacteria Klebsiella pneumoniae ATCC 10031 strain
# [12] = test system: Providencia stuartii; experiment: Tested in vitro for inhibitory activity against gram negative bacteria Providencia stuartii CNUR 5 strain
# [13] = test system: Pseudomonas aeruginosa; experiment: Tested in vitro for inhibitory activity against gram negative bacteria Pseudomonas aeruginosa ATCC 9027 strain
# [14] = test system: Escherichia coli; experiment: Tested in vitro for inhibitory activity against gram negative bacteria Escherichia coli ATCC 8739 strain
# [15] = test system: Providencia stuartii; experiment: Tested in vitro for inhibitory activity against gram negative bacteria Providencia stuartii CNUR 5 cell lines
# [16] = test system: Escherichia coli; experiment: Tested in vitro for inhibitory activity against gram negative bacteria Escherichia coli ATCC 8739 cell lines at 5.8 ug/mL
# [17] = test system: Escherichia coli; experiment: Tested in vitro for inhibitory activity against gram negative bacteria Escherichia coli ISF 432 cell lines at 5.8 ug/mL
# [18] = Minimum concentration at which cleaved linear DNA is observed
# [19] = test system: Escherichia coli; experiment: Tested in vitro for inhibitory activity against gram negative bacteria Escherichia coli ATCC 8739 cell lines at 10 ug/mL
# [20] = test system: Escherichia coli; experiment: Tested in vitro for inhibitory activity against gram negative bacteria Escherichia coli ISF 432 cell lines at 10 ug/mL
# [21] = test system: Escherichia coli; experiment: Tested in vitro for inhibitory activity against gram negative bacteria Escherichia coli ATCC 8739 strain at 25 ug/mL
# [22] = test system: Escherichia coli; experiment: Tested in vitro for inhibitory activity against gram negative bacteria Escherichia coli ISF 432 strain at 25 ug/mL
smiles,measurement,setting,value
Nc1cc2c(=O)c(C(=O)O)cn(C3CC3)c2cc1NC1CC1,MIC,[1],128 µg/mL
same,MIC,[2],64 µg/mL
same,MIC,[3],2 µg/mL
same,MIC,[4],4 µg/mL
same,MIC,[5],64 µg/mL
same,MIC,[6],128 µg/mL
same,MIC,[7],128 µg/mL
same,MIC,[8],128 µg/mL
same,MIC,[9],128 µg/mL
same,MIC,[10],128 µg/mL
same,MIC,[11],2 µg/mL
same,MIC,[12],128 µg/mL
same,MIC,[13],128 µg/mL
CN1CCN(c2c(N)c(N)c3c(=O)c(C(=O)O)cn(C4CC4)c3c2F)CC1,MIC,[1],2 µg/mL
same,MIC,[2],0.12 µg/mL
same,MIC,[3],0.03 µg/mL
same,MIC,[4],0.03 µg/mL
same,MIC,[5],0.25 µg/mL
same,MIC,[6],4 µg/mL
same,MIC,[7],2 µg/mL
same,MIC,[8],2 µg/mL
same,MIC,[9],4 µg/mL
same,MIC,[10],4 µg/mL
same,MIC,[11],0.03 µg/mL
same,MIC,[12],2 µg/mL
same,MIC,[13],4 µg/mL
Nc1cc2c(=O)c(C(=O)O)cn(C3CC3)c2cc1Cl,MIC,[1],128 µg/mL
same,MIC,[2],16 µg/mL
same,MIC,[14],2 µg/mL
same,MIC,[4],2 µg/mL
same,MIC,[15],64 µg/mL
same,MIC,[5],16 µg/mL
same,MIC,[6],64 µg/mL
same,MIC,[7],128 µg/mL
same,MIC,[8],128 µg/mL
same,MIC,[9],128 µg/mL
same,MIC,[10],128 µg/mL
same,MIC,[11],2 µg/mL
same,MIC,[13],128 µg/mL
Nc1cc2c(=O)c(C(=O)O)cn(C3CC3)c2c(F)c1N1CCSCC1,MIC,[1],1 µg/mL
same,MIC,[2],1 µg/mL
same,MIC,[16],0.12 µg/mL
same,MIC,[17],0.06 µg/mL
same,MIC,[5],4 µg/mL
same,MIC,[6],1 µg/mL
same,MIC,[7],0.5 µg/mL
same,MIC,[8],0.25 µg/mL
same,MIC,[9],4 µg/mL
same,MIC,[10],0.5 µg/mL
same,MIC,[11],0.03 µg/mL
same,MIC,[12],0.5 µg/mL
same,MIC,[13],4 µg/mL
CC(C)(C)n1cc(C(=O)O)c(=O)c2cc(N)c(N3CCSCC3)cc21,MIC,[1],0.5 µg/mL
same,MIC,[2],2 µg/mL
same,MIC,[16],0.06 µg/mL
same,MIC,[17],0.03 µg/mL
same,MIC,[5],2 µg/mL
same,MIC,[6],0.5 µg/mL
same,MIC,[7],0.25 µg/mL
same,MIC,[8],0.25 µg/mL
same,MIC,[9],8 µg/mL
same,Concentration,[18],5.8 µg/mL
same,MIC,[10],0.5 µg/mL
same,MIC,[11],0.03 µg/mL
same,MIC,[12],4 µg/mL
same,MIC,[13],4 µg/mL
Nc1cc2c(=O)c(C(=O)O)cn(C3CC3)c2cc1N1CCSCC1,MIC,[1],1 µg/mL
same,MIC,[2],0.5 µg/mL
same,MIC,[19],0.03 µg/mL
same,MIC,[20],0.03 µg/mL
same,MIC,[5],0.5 µg/mL
same,MIC,[6],2 µg/mL
same,MIC,[7],0.5 µg/mL
same,MIC,[8],0.5 µg/mL
same,MIC,[9],8 µg/mL
same,MIC,[10],1 µg/mL
same,MIC,[11],0.03 µg/mL
same,MIC,[12],1 µg/mL
same,MIC,[13],2 µg/mL
CN1CCN(c2cc3c(c(N)c2N)c(=O)c(C(=O)O)cn3C2CC2)CC1,MIC,[1],128 µg/mL
same,MIC,[2],128 µg/mL
same,MIC,[3],16 µg/mL
same,MIC,[4],16 µg/mL
same,MIC,[5],128 µg/mL
same,MIC,[6],128 µg/mL
same,MIC,[7],128 µg/mL
same,MIC,[8],128 µg/mL
same,MIC,[9],128 µg/mL
same,MIC,[10],128 µg/mL
same,MIC,[11],32 µg/mL
same,MIC,[12],128 µg/mL
same,MIC,[13],128 µg/mL
CN1CCN(c2cc3c(cc2N)c(=O)c(C(=O)O)cn3C2CC2)CC1,MIC,[1],4 µg/mL
same,MIC,[2],0.25 µg/mL
same,MIC,[21],0.25 µg/mL
same,MIC,[22],0.03 µg/mL
same,MIC,[5],0.25 µg/mL
same,MIC,[6],4 µg/mL
same,MIC,[7],2 µg/mL
same,MIC,[8],2 µg/mL
same,MIC,[9],32 µg/mL
same,MIC,[10],2 µg/mL
same,MIC,[11],0.03 µg/mL
same,MIC,[12],8 µg/mL
same,MIC,[13],4 µg/mL
